According to patent US20240018125A1, “CYCLIC ISOTHIOUREA DERIVATIVES AS CXCR4 MODULATORS” (ERMIUM THERAPEUTICS, priority 2020, published 2024):
Structures can show the parent of a compound that is named as a salt.

| melting point | SMILES |
| --- | --- |
| 235 to 242 °C | C1=C(CSC2=NCc3ccccc3N2)N2CC(C3CCCCC3)N=C2S1 (stereo not shown) (as salt: hydrochloride) [Example 15, 6-cyclohexyl-3-(((3,4-dihydroquinazolin-2-yl)thio)methyl)-5,6-dihydroimidazo[2,1-b]thiazole dihydrochloride] |
| 50 to 53 °C | C1=C(CSC2=NCCc3ccccc3N2)N2CC(Cc3ccccc3)N=C2S1 (stereo not shown) (as salt: hydrochloride) [Example 88, 6-benzyl-3-(((4,5-dihydro-1H-benzo[d][1,3]diazepin-2-yl)thio)methyl)-5,6-dihydroimidazo[2,1-b]thiazole dihydrochloride] |
| 147 to 151 °C | Fc1cccc2c1CN=C(SCC1=CSC3=NC(Cc4ccccc4)CN13)N2 (stereo not shown) (as salt: hydrochloride) [Example 117, 6-benzyl-3-(((5-fluoro-1,4-dihydroquinazolin-2-yl)thio)methyl)-5,6-dihydroimidazo[2,1-b]thiazole dihydrochloride] |
| 65 to 85 °C | c1ccc(CC2CN=C(SCCN3CCCCCC3)N2)cc1 (stereo not shown) (as salt: hydrochloride) [Example 58, 1-(2-((5-benzyl-4,5-dihydro-1H-imidazol-2-yl)thio)ethyl)azepane dihydrochloride] |
| > 250 °C | Fc1ccc2c(c1)N=C1SC=C(CSC3=NCc4ccccc4N3)N1C2 (as salt: hydrochloride) [Example 82, 3-(((1,4-dihydroquinazolin-2-yl)thio)methyl)-8-fluoro-5H-thiazolo[2,3-b]quinazoline dihydrochloride] |
| 235 to 240 °C | COc1cc2nc3n(c2cc1OC)C(O)(CSC1=NCc2ccccc2N1)CS3.Cl (stereo not shown) |
| 215 to 220 °C | C1=C(CSC2=NCc3ccccc3N2)N2CC(Cc3cccs3)N=C2S1 (stereo not shown) (as salt: hydrochloride) [Example 63, 3-(((3,4-dihydroquinazolin-2-yl)thio)methyl)-6-(thiophen-2-ylmethyl)-5,6-dihydroimidazo[2,1-b]thiazole dihydrochloride] |
| 174 to 180 °C | C1=C(CSC2=NCC(C3CCCCC3)N2)N2Cc3ccccc3CN=C2S1 (stereo not shown) (as salt: hydrochloride) [Example 26, 3-(((4-cyclohexyl-4,5-dihydro-1H-imidazol-2-yl)thio)methyl)-5,10-dihydrobenzo[e]thiazolo[3,2-a][1,3]diazepine dihydrochloride] |
| 125 to 130 °C | Fc1ccc2c(c1)NC(SCC1=CSC3=NC(Cc4ccccc4)CN13)=NC2 (stereo not shown) (as salt: hydrochloride) [Example 89, 6-benzyl-3-(((7-fluoro-1,4-dihydroquinazolin-2-yl)thio)methyl)-5,6-dihydroimidazo[2,1-b]thiazole dihydrochloride] |
| 190 to 194 °C | CC1(C)N=C(SCC2=CSC3=Nc4cccc(F)c4CN23)Nc2ccccc21 (as salt: hydrochloride) [Example 73, 3-(((4,4-dimethyl-1,4-dihydroquinazolin-2-yl)thio)methyl)-6-fluoro-5H-thiazolo[2,3-b]quinazoline dihydrochloride] |
| 134 to 138 °C | c1ccc2c(c1)CN(CCSC1=NCc3ccccc3N1)C2 (as salt: hydrochloride) [Example 71, 2-((2-(isoindolin-2-yl)ethyl)thio)-3,4-dihydroquinazoline dihydrochloride] |
| > 250 °C | CC1(C)CN=C(SCC2=CSC3=Nc4ccccc4CN23)N1 (as salt: hydrochloride) [Example 5, 3-(((5,5-dimethyl-4,5-dihydro-1H-imidazol-2-yl)thio)methyl)-5H-thiazolo[2,3-b]quinazoline dihydrochloride] |

| SMILES | melting point |
| --- | --- |
| c1ccc2c(c1)CN=C(SCCN1[C@@H]3CCC[C@H]1CC3)N2 (as salt: hydrochloride) [Example 133, 2-((2-((1R,5S)-8-azabicyclo[3.2.1]octan-8-yl)ethyl)thio)-3,4-dihydroquinazoline dihydrochloride] | 52 to 70 °C |
